Measurements reported in EP4656630A1, “NOVEL COMPOUND AS LYSYL-TRNA SYNTHETASE 1 INHIBITOR, AND USE THEREOF” (Zymedi Co., Ltd., priority 2023, dated 2024).

How the values were obtained:
[1] = S9 metabolic stability, human; format: in vitro ADME
Experimental: (§1) Among these, secondary MS measurements were conducted for Compound 25 (C0047), Compound 43 (C0216), and C0001 using the S9 method. This test measured the remaining % at 30, 45, and 60 minutes for four species: mouse, rat, dog, and human.

[2] = S9 metabolic stability, rat; format: in vitro ADME
Experimental: as §1

[3] = Microsomal metabolic stability, rat; format: in vitro ADME
Experimental: (§2) Metabolic stability (MS) evaluation was conducted for the selected compounds by measuring in vitro stability in two species, rat and human, according to the microsomal stability measurement method. As a result, it was identified that MS varied depending on the transformation of parts A, B, and C.

[4] = S9 metabolic stability, dog; format: in vitro ADME
Experimental: as §1

[5] = Microsomal metabolic stability, human; format: in vitro ADME
Experimental: as §2

[6] = S9 metabolic stability, mouse; format: in vitro ADME
Experimental: as §1

KARS1 and 37LR = biological target: T1, KARS1 and 37LR (Homo sapiens, UniProt Q15046); assay: Cell-free ELISA of KARS1 and 37LR (laminin receptor) binding; settings: 10 µM compound, 1 hour, plate coated with KARS1 (1-207aa), LRF
T1 construct: KARS1 (1-207aa)
T1 sequence (Q15046 1-207): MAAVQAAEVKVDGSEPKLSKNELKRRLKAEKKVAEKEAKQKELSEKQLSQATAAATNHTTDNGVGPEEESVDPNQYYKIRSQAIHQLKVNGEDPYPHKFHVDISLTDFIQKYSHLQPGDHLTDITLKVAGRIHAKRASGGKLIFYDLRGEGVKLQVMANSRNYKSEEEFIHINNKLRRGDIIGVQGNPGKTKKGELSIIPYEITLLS
Experimental: Next, based on the mechanism of action, a cell-free ELISA analysis was conducted to select compounds with high inhibitory activity on the binding of KARS1 and LR (laminin receptor).

Organ distribution = format: in vivo; set-up: Organ distribution Plasma (ng/ml): concentration or dose not given beside the values
[7] = Rat pharmacokinetics (po and iv) and bioavailability; format: in vivo; settings: for Cmax / Tmax / half-life / AUC: in vivo; for AUC value increase at 30 mpk: 30 mpk compared with 10 mpk
Experimental: For this purpose, formulations suitable for peroral administration (po) and intravenous injection (iv) for each compound were first selected to ensure stable PK progression.
The formulation was selected under the condition of maintaining a clear solution for more than 1 hour at 10 and 30 mpk doses based on po, and the iv formulation was modified when iv use was not possible based on po (Table 8).
To confirm the oral administration potential of the selected compounds, 10 mpk rat po PK was conducted. The PK profile and key indicators after administering 10 mpk to five compounds, C0001, 25, 41, 42, and 43, are shown in Figure 3 and Table 9.
Based on the previous 10 mpk po rat PK results, 30 mpk po rat PK was conducted for four compounds, C0001, 25, 41, and 43, to confirm changes in the blood PK profile of the substances with increasing doses.
For these compounds, 2 mpk iv rat PK was conducted to calculate bioavailability (BA) (Table 11).

Raw264.7 cells = assay: KARS1-induced trans-migration assay; format: cell-based, mouse; settings: Mus musculus, RAW264.7; for inhibition at 1 µM: 1 µM compound, read-out: KARS1-induced Raw264.7 cell migration (% inhibition, 1uM)
Experimental: C0001 inhibits the binding of KARS1 and 67LR, thereby blocking the migration of monocytes/macrophages and suppressing inflammation. Accordingly, a trans-migration assay using mouse macrophages (Raw264.7) was conducted to preliminarily screen drugs that inhibit the migration of monocytes/macrophages.
Based on this, when KARS1 protein was directly treated externally instead of LN, the trans-migration of Raw264.7 was induced, and the cell migration inhibitory effect of the KARS1 inhibitor C0001 was confirmed. It was verified that C0001, which specifically binds to KARS1, can inhibit cell migration by binding to extracellular KARS1, in addition to the mechanism of inhibiting cell membrane migration of KARS1 induced by laminin and its binding to 67LR, thereby enabling this analysis to be used as a direct method for evaluating in vitro activity against KARS1.
Next, preliminary candidate substances with high inhibitory activity at 1 µM were treated at concentrations of 0.1~4 µM for analysis.

Raw 264.7 cells = assay: LN (Laminin 421)-induced immune cell migration, Transwell; format: cell-based; settings: Mus musculus, RAW264.7; for inhibition at 3 µM: 3 µM compound, LN (Laminin 421 1 µg/ml), 24 hours, % inhibition compared to control group, read-out: Migration inhibitor % (3uM)
Experimental: Cell migration was assessed based on the method described in the prior literature (Park, S. G. et al. Human lysyl-tRNA synthetase is secreted to trigger proinflammatory response. Proceedings of the National Academy of Sciences, 2005, 102.18: 6356-6361.). The specific experimental method is as follows. A Transwell (Corning#3421-5µm pore) was coated with gelatin (0.5mg/ml), and then Raw 264.7 cells (1 x 10^5 cells/well) were seeded in the upper chamber. Serum-free medium (Serum Free DMEM, 500 µl) containing LN (Laminin 421 1 µg/ml) was added to the lower chamber. Each compound was treated at a concentration of 3µM in the upper chamber. After 24 hours, the cells were fixed with 70% methanol for 30 minutes and stained with 50% hematoxylin for 30 minutes. Non-migrating cells on the upper side of the membrane were removed with a cotton swab, and the membrane was mounted on a slide. Migrating cells on the lower side of the membrane were observed under a high-power microscope, and the number of cells was measured from the obtained images and expressed as the inhibition rate (% inhibition) compared to the control group.

Compound: COc1ccc(CCN(Cc2ccc(N3CC[C@H](C(=O)O)C3)cc2)c2nc3cccc(F)c3s2)cc1 [Compound 25, (S)-1-(4-(((7-fluorobenzo[d]thiazol-2-yl)(4-methoxyphenethyl)amino)-methyl)phenyl)pyrrolidine-3-carboxylic acid]
- Metabolic stability (% remaining at each time) Human (min) 30 ([1]; 30 min): 70.1%
- Metabolic stability (% remaining at each time) Human (min) 45 ([1]; 45 min): 75.8%
- Metabolic stability (% remaining at each time) Human (min) 60 ([1]; 60 min): 66.8%
- Metabolic stability (% remaining at each time) Rat (min) 30 ([2]; 30 min): 86.0%
- Metabolic stability (% remaining at each time) Rat (min) 45 ([2]; 45 min): 84.1%
- Metabolic stability (% remaining at each time) Rat (min) 60 ([2]; 60 min): 88.5%
- Metabolic stability (% remaining at 30 min) Rat [3]: 77%
- Metabolic stability (% remaining at each time) Dog (min) 30 ([4]; 30 min): 100.6%
- Metabolic stability (% remaining at each time) Dog (min) 45 ([4]; 45 min): 93.5%
- Metabolic stability (% remaining at each time) Dog (min) 60 ([4]; 60 min): 97.0%
- Metabolic stability (% remaining at 30 min) Human [5]: 66%
- Metabolic stability (% remaining at each time) Mouse (min) 30 ([6]; 30 min): 70.5%
- Metabolic stability (% remaining at each time) Mouse (min) 45 ([6]; 45 min): 71.7%
- Metabolic stability (% remaining at each time) Mouse (min) 60 ([6]; 60 min): 60.9%
- inhibition at 10 µM (KARS1 and 37LR): 69.2%
- Organ distribution (ratio per plasma) Brain (Organ distribution; 0.5 h): 0.06
- Organ distribution (ratio per plasma) Brain (Organ distribution; 6.0 h): 0.54
- Organ distribution (ratio per plasma) Heart (Organ distribution; 0.5 h): 0.29
- Organ distribution (ratio per plasma) Heart (Organ distribution; 6.0 h): 0.52
- Organ distribution (ratio per plasma) Kidney (Organ distribution; 0.5 h): 0.38
- Organ distribution (ratio per plasma) Kidney (Organ distribution; 6.0 h): 0.79
- Organ distribution (ratio per plasma) Liver (Organ distribution; 0.5 h): 0.85
- Organ distribution (ratio per plasma) Liver (Organ distribution; 6.0 h): 3.15
- Organ distribution (ratio per plasma) Lung (Organ distribution; 0.5 h): 0.41
- Organ distribution (ratio per plasma) Lung (Organ distribution; 6.0 h): 1.05
- Organ distribution Plasma (ng/ml) (Organ distribution; 0.5 h): 29,901 ng/ml
- Organ distribution Plasma (ng/ml) (Organ distribution; 6.0 h): 1,499 ng/ml
- Cmax ([7]; 10 mg/kg, po, 10 mpk): 1750 ng/mL
- Tmax ([7]; 10 mg/kg, po, 10 mpk): 1 h
- half-life ([7]; 10 mg/kg, po, 10 mpk): 1.34 h
- Cmax ([7]; 30 mg/kg, po, 30 mpk): 14400 ng/mL
- Tmax ([7]; 30 mg/kg, po, 30 mpk): 2 h
- half-life ([7]; 30 mg/kg, po, 30 mpk): 0.76 h
- AUC ([7]; iv, 2 mg/kg, 2 mpk): 2410 ng·h/mL
- AUC ([7]; po, 10 mg/kg, 10 mpk): > 5000 ng·h/mL
- AUC ([7]; po, 10 mg/kg, 10 mpk (Table 11)): 5410 ng·h/mL
- AUC ([7]; po, 30 mg/kg, 30 mpk): 53000 ng·h/mL
- AUC ([7]; po, 30 mg/kg, 30 mpk (Table 11)): 53000 ng·h/mL
- BA (%) ([7]; po, 10 mpk against iv 2 mpk): 44.9%
- AUC (ng*h/ml) ([7]; po, 10 mpk, listed as 25 (C0047), 10 mg/kg): 5,109 ng*h/ml
- BA (%) ([7]; po, 30 mpk against iv 2 mpk): 146.6%
- AUC value increase at 30 mpk ([7]; po): 10.4 times
- inhibition at 1 µM (Raw264.7 cells): 96.2%
- EC50 (Raw264.7 cells; KARS1-induced cell migration, 0.1~4 µM): 0.57 µM
- inhibition at 3 µM (Raw 264.7 cells): 83%
- EC50 (Raw 264.7 cells; LN-induced cell migration, read-out: EC50 for cell migration inhibition induced by LN): 5.96 µM

Compound: COc1ccc(CCN(c2nc3cccc(F)c3s2)C(C)c2cccc(N3CC[C@@H](C(=O)O)C3)c2)cc1 (stereo partly drawn) [Compound 41, (3R)-1-(3-(1-((7-fluorobenzo[d]thiazol-2-yl)(4-methoxyphenethyl)-amino)ethyl)phenyl)pyrrolidine-3-carboxylic acid]
- Metabolic stability (% remaining at 30 min) Rat [3]: 58%
- Metabolic stability (% remaining at 30 min) Human [5]: 51%
- inhibition at 10 µM (KARS1 and 37LR): 69.6%
- Cmax ([7]; 10 mg/kg, po, 10 mpk): 4230 ng/mL
- Tmax ([7]; 10 mg/kg, po, 10 mpk): 0.83 h
- half-life ([7]; 10 mg/kg, po, 10 mpk): 1.96 h
- Cmax ([7]; 30 mg/kg, po, 30 mpk): 6470 ng/mL
- Tmax ([7]; 30 mg/kg, po, 30 mpk): 1 h
- half-life ([7]; 30 mg/kg, po, 30 mpk): 2.13 h
- AUC ([7]; po, 30 mg/kg, 30 mpk): 28500 ng·h/mL
- AUC (ng*h/ml) ([7]; po, 10 mpk, 10 mg/kg): exceeding 5,000 ng*h/ml
- AUC (ng*h/ml) ([7]; po, 10 mpk, listed as 41 (C0189), 10 mg/kg): 11,859 ng*h/ml
- AUC value increase at 30 mpk ([7]; po): approximately 2.4 times
- inhibition at 1 µM (Raw264.7 cells): 90.2%
- inhibition at 3 µM (Raw 264.7 cells): 58.7%
